According to ChEMBL document CHEMBL1201862, “PubChem BioAssay data set” (2004):
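Growth conditions: 96-well plates. Treatment: test compound, 48 hours, 5 concentrations. Analysis: linear interpolation between bracketing concentrations; unreached endpoints set to highest concentration. GI50 is the concentration that inhibits growth by half.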 Activity calls are given as the source filed them. Rule as the data show it: active = GI50 up to about 1.1 µM and inactive = higher.

Key:
Experiment in all cases: NCI-60 cell line screen, 48 h
T47D = tested on: T47D
NCI-H23 = tested on: NCI-H23
MDA-MB-435 = tested on: MDA-MB-435
HCC 2998 = tested on: HCC 2998
Hs-578T = tested on: Hs-578T
PC-3 = tested on: PC-3
IGROV-1 = tested on: IGROV-1
MOLT-4 = tested on: MOLT-4
SN12C = tested on: SN12C
K562 = tested on: K562
SK-OV-3 = tested on: SK-OV-3
HCT-116 = tested on: HCT-116
SF-268 = tested on: SF-268
NCI-H460 = tested on: NCI-H460
RXF 393 = tested on: RXF 393
NCI/ADR-RES = tested on: NCI/ADR-RES
NCI-H522 = tested on: NCI-H522
UACC-257 = tested on: UACC-257
HCT-15 = tested on: HCT-15

Row | Structure (SMILES) | GI50 (T47D) | GI50 (NCI-H23) | GI50 (MDA-MB-435) | GI50 (HCC 2998) | GI50 (Hs-578T) | GI50 (PC-3) | GI50 (IGROV-1) | GI50 (MOLT-4) | GI50 (SN12C) | GI50 (K562) | GI50 (SK-OV-3) | GI50 (HCT-116) | GI50 (SF-268) | GI50 (NCI-H460) | GI50 (RXF 393) | GI50 (NCI/ADR-RES) | GI50 (NCI-H522) | GI50 (UACC-257) | GI50 (HCT-15) [µM]
1 | NS(=O)(=O)c1ccc(N2C(=O)C(=O)N(c3ccccc3)C2=S)cc1 | 55.1 µM (inactive) | > 100 µM (inactive) | > 100 µM (inactive) | > 100 µM (inactive) | > 100 µM (inactive) | > 100 µM (inactive) | > 100 µM (inactive) | > 100 µM (inactive) | > 100 µM (inactive) | > 100 µM (inactive) | > 100 µM (inactive) | > 100 µM (inactive) | > 100 µM (inactive) | > 100 µM (inactive) | 75.7 µM (inactive) | > 100 µM (inactive) | 27 µM (inactive) | 37.8 µM (inactive) | 60.3
2 | c1ccc(CN2CCN3CCN(CC2)CCN(Cc2ccccc2)CC3)cc1 | 4.08 µM (inactive) | 5.05 µM (inactive) | 3.15 µM (inactive) | 10.9 µM (inactive) | 14.6 µM (inactive) | 4.97 µM (inactive) | 7.23 µM (inactive) | 8.75 µM (inactive) | 4.51 µM (inactive) | 4 µM (inactive) | 16.4 µM (inactive) | 4.09 µM (inactive) | 11.6 µM (inactive) | 6.15 µM (inactive) | 5.6 µM (inactive) | > 100 µM (inactive) | 4.36 µM (inactive) | 3.04 µM (inactive) | 32.4
3 | O=C(O)/C(=C/c1ccccc1)c1ccccc1 | > 100 µM (inactive) | > 100 µM (inactive) | > 100 µM (inactive) | > 100 µM (inactive) | > 100 µM (inactive) | > 100 µM (inactive) | > 100 µM (inactive) | > 100 µM (inactive) | > 100 µM (inactive) | > 100 µM (inactive) | > 100 µM (inactive) | > 100 µM (inactive) | > 100 µM (inactive) | > 100 µM (inactive) | > 100 µM (inactive) | > 100 µM (inactive) | > 100 µM (inactive) | > 100 µM (inactive) | > 100
4 | C=C1CC2(C)CCC(OC(=O)C3(C)OC3C)C(C)(OC(C)=O)C2CC1=C(C)C (centres undefined) | > 100 µM (inactive) | > 100 µM (inactive) | > 100 µM (inactive) | > 100 µM (inactive) | > 100 µM (inactive) | > 100 µM (inactive) | > 100 µM (inactive) | > 100 µM (inactive) | > 100 µM (inactive) | > 100 µM (inactive) | > 100 µM (inactive) | > 100 µM (inactive) | > 100 µM (inactive) | > 100 µM (inactive) | > 100 µM (inactive) | > 100 µM (inactive) | > 100 µM (inactive) | > 100 µM (inactive) | > 100
5 | N#Cc1c(N2CCCC2)ncn(Cc2ccccc2)c1=S | > 86.7 µM (inactive) | > 100 µM (inactive) | > 100 µM (inactive) | > 100 µM (inactive) | > 54.8 µM (inactive) | 71.3 µM (inactive) | > 87.9 µM (inactive) | > 100 µM (inactive) | > 100 µM (inactive) | > 100 µM (inactive) | > 100 µM (inactive) | > 100 µM (inactive) | 33.6 µM (inactive) | > 100 µM (inactive) | 30.3 µM (inactive) | 65 µM (inactive) | > 90.4 µM (inactive) | > 100 µM (inactive) | > 100
6 | O=C1NC(O)CCN1C1CC(O)C(CO)O1 (centres undefined) | > 100 µM (inactive) | > 100 µM (inactive) | > 100 µM (inactive) | > 100 µM (inactive) | > 100 µM (inactive) | > 100 µM (inactive) | > 100 µM (inactive) | > 100 µM (inactive) | > 100 µM (inactive) | > 100 µM (inactive) | > 100 µM (inactive) | > 100 µM (inactive) | > 100 µM (inactive) | > 100 µM (inactive) | > 100 µM (inactive) | > 100 µM (inactive) | > 100 µM (inactive) | > 100 µM (inactive) | > 100
7 | COc1ccc(CSCc2cc(OC)c(OC)c(OC)c2)cc1 | 8 µM (inactive) | > 76 µM (inactive) | 4.43 µM (inactive) | > 31.6 µM (inactive) | > 66.4 µM (inactive) | > 31.6 µM (inactive) | > 100 µM (inactive) | > 48.5 µM (inactive) | > 86.1 µM (inactive) | 33.8 µM (inactive) | > 100 µM (inactive) | > 31.6 µM (inactive) | > 100 µM (inactive) | > 100 µM (inactive) | > 82 µM (inactive) | > 31.6 µM (inactive) | > 100 µM (inactive) | > 31.6 µM (inactive) | > 45.3
8 | CC(=O)O[C@H]1C#C/C=C\C#CC[C@@H]2C(=O)N[C@@H]12 | 52.7 µM (inactive) | 11.2 µM (inactive) | > 100 µM (inactive) | 25.1 µM (inactive) | 47.3 µM (inactive) | > 100 µM (inactive) | 22.8 µM (inactive) | 0.231 µM (active) | 26 µM (inactive) | > 62.8 µM (inactive) | 57.8 µM (inactive) | 27 µM (inactive) | 18.6 µM (inactive) | 0.0382 µM (active) | 23.2 µM (inactive) | 20.7 µM (inactive) | 19.1 µM (inactive) | > 42.4 µM (inactive) | 22.4
9 | COC(=O)c1ccccc1C1CN=NC12Cc1ccccc1C2=O (centres undefined) | 41.3 µM (inactive) | > 100 µM (inactive) | 42.6 µM (inactive) | > 100 µM (inactive) | 50.7 µM (inactive) | 34 µM (inactive) | > 100 µM (inactive) | 41.7 µM (inactive) | > 100 µM (inactive) | 68.5 µM (inactive) | > 100 µM (inactive) | > 100 µM (inactive) | > 100 µM (inactive) | > 100 µM (inactive) | > 100 µM (inactive) | 46.8 µM (inactive) | 59.2 µM (inactive) | > 100 µM (inactive) | > 100
10 | Cc1coc2c1CC1(C)C(CCC(O)C1C)C2 (centres undefined) | > 100 µM (inactive) | > 100 µM (inactive) | > 100 µM (inactive) | > 100 µM (inactive) | > 100 µM (inactive) | > 100 µM (inactive) | > 100 µM (inactive) | > 100 µM (inactive) | > 100 µM (inactive) | > 100 µM (inactive) | > 100 µM (inactive) | > 100 µM (inactive) | > 100 µM (inactive) | > 100 µM (inactive) | > 100 µM (inactive) | > 100 µM (inactive) | > 100 µM (inactive) | > 100 µM (inactive) | > 100
11 | Cc1ccc(/N=C2\SC(=NN(C)C)S\C2=N/c2ccc(C)cc2)cc1 | > 100 µM (inactive) | > 100 µM (inactive) | > 100 µM (inactive) | > 100 µM (inactive) | > 100 µM (inactive) | > 100 µM (inactive) | > 100 µM (inactive) | > 100 µM (inactive) | > 100 µM (inactive) | > 100 µM (inactive) | > 100 µM (inactive) | > 100 µM (inactive) | > 100 µM (inactive) | > 100 µM (inactive) | > 100 µM (inactive) | > 100 µM (inactive) | 4.71 µM (inactive) | > 100 µM (inactive) | > 100
12 | C[C@]12[C@@H]3CC[C@H]1[C@@H](OC(=O)Nc1cc([N+](=O)[O-])cc([N+](=O)[O-])c1)C(=O)N2CC3 | > 100 µM (inactive) | > 100 µM (inactive) | > 100 µM (inactive) | > 100 µM (inactive) | > 100 µM (inactive) | > 100 µM (inactive) | > 100 µM (inactive) | > 100 µM (inactive) | > 100 µM (inactive) | > 100 µM (inactive) | > 100 µM (inactive) | > 100 µM (inactive) | > 100 µM (inactive) | > 100 µM (inactive) | > 100 µM (inactive) | > 100 µM (inactive) | > 100 µM (inactive) | > 100 µM (inactive) | > 100
13 | CC(C)C1OC(=O)C(Cc2ccccc2)N(C)C(=O)C(C(C)C)OC(=O)C(Cc2ccccc2)N(C)C(=O)C(C(C)C)OC(=O)C(Cc2ccccc2)N(C)C1=O (centres undefined) | 1.05 µM (active) | 1.03 µM (active) | 0.641 µM (active) | 0.762 µM (active) | 1.18 µM (inactive) | 0.687 µM (active) | 1.03 µM (active) | 0.508 µM (active) | 0.804 µM (active) | 0.838 µM (active) | 0.836 µM (active) | 0.989 µM (active) | 1.4 µM (inactive) | 0.865 µM (active) | 0.887 µM (active) | 0.771 µM (active) | 0.689 µM (active) | 0.748 µM (active) | 0.891
14 | Cc1nnc(N)nc1/C=C\c1ccc(Cl)cc1Cl | 55.3 µM (inactive) | 33.7 µM (inactive) | 33.5 µM (inactive) | 21.6 µM (inactive) | 29.2 µM (inactive) | 16.9 µM (inactive) | 16.3 µM (inactive) | 41.4 µM (inactive) | 61.5 µM (inactive) | 77.8 µM (inactive) | 45.5 µM (inactive) | 26.9 µM (inactive) | 34.8 µM (inactive) | 19.9 µM (inactive) | 39.7 µM (inactive) | > 100 µM (inactive) | 24.2 µM (inactive) | 54.6 µM (inactive) | 23.3
15 | COc1ccc(-c2nc3cc(C(F)(F)F)ccc3n2CC2CCCN3CCCCC23)cc1 (centres undefined) | 18.5 µM (inactive) | 15.6 µM (inactive) | 15.8 µM (inactive) | 12.1 µM (inactive) | 15.5 µM (inactive) | 13.6 µM (inactive) | 13.9 µM (inactive) | 12.7 µM (inactive) |  | 14.8 µM (inactive) | 17.7 µM (inactive) | 18.1 µM (inactive) | 15.3 µM (inactive) | 15.8 µM (inactive) | 16.6 µM (inactive) | 14.1 µM (inactive) | 15.6 µM (inactive) | 13.8 µM (inactive) | 15.7
